# Source: article PMC7887271, “Fast acting allosteric phosphofructokinase inhibitors block trypanosome glycolysis and cure acute African trypanosomiasis in mice” (Nature Communications, 2021)
# “And” between values parts separate entries of the source, which are not always exact repeats. Identical values can stand only once. Like-named read-outs stand apart in the source and are kept apart here.
# Target: T1, T. brucei phosphofructokinase (TbPFK) (Trypanosoma brucei brucei, UniProt O15648)
# T1 construct: made in house; host or cells: Escherichia coli C41 (pET28a, codon optimised gene)
# T1 sequence (O15648 1-487): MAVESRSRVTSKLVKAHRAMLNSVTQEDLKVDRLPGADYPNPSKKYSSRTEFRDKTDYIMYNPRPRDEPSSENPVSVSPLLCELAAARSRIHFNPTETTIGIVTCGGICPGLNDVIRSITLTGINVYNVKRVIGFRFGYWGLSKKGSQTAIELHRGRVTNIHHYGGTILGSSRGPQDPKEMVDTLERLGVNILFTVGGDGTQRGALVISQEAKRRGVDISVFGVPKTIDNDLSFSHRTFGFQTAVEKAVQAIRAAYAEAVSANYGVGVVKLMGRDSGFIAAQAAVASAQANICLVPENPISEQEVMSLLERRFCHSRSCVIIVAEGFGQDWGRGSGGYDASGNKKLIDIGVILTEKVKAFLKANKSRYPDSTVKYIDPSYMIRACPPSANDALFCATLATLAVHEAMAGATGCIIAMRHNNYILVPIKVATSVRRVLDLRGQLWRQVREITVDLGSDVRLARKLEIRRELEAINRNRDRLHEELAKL
# Test: ADP-Glo assay for measuring PFK inhibition
# Assay type: biochemical
# Settings: for RLU, avg / RLU, individual replicates: SuppFig1
# Method: Parasite enzyme kinetic data were measured using N-terminally His6-tagged TbPFK expressed in Escherichia coli C41 cells, using a codon optimised gene inserted in a pET28a vector (Supplementary Methods 1). Recombinant human PFKs were expressed in PFK-deficient Saccharomyces cerevisiae. PFK enzyme inhibition was measured using an ADP-Glo^TM assay (Promega) in a 96-well plate format (Supplementary Methods 2.1), using a Spectramax© M5 Multimode Plate Reader to measure luminescence values which were converted to ADP concentrations. IC50 values were determined using a sigmoidal curve fitting algorithm in Kaleidagraph 4 (Supplementary Fig. 1). Mode of action studies were carried out using a linked enzyme assay coupling the forward reaction of TbPFK to the M1 isoform of human pyruvate kinase followed by lactate dehydrogenase. The change in UV absorbance at 340 nm resulting from the conversion of NADH to NAD^+ was measured at 25 °C in ‘kinetic mode’ on a Spectramax© M5 Multimode plate reader. Initial velocities were plotted against substrate concentration to give curves showing non-competitive inhibition (Supplementary Fig. 2). An alternative linked enzyme assay was developed to control for the potential inhibitory activity of ATP on human PFK (Supplementary Methods 2.3).
# The ADP-Glo™ end-point assay kit manufactured by Promega (cat. No. V9102) was used to measure ADP produced in the phosphofructokinase reaction:
# Following this kinase reaction, the addition of a reagent results in any unused background ATP being removed and the reaction is sequestered. A second reagent is then added to convert the remaining ADP to ATP which is coupled to the luciferase/luciferin reaction to produce light. ‘Ultrapure’ ATP and ADP from Promega were used to reduce background noise. All reagents additional to those provided in the Promega ADP-Glo™ kit were purchased from Sigma-Aldrich.
# The assay buffer comprised 50 mM triethanolamine (TEA), 10 mM MgCl2, 5 mM KCl, 0.1% w/v bovine serum albumin (BSA), 0.005% Tween-20, 1% DMSO, pH 7.4. A 3-fold serial dilution of 250x inhibitor stocks was carried out in 100% DMSO. 2 µl of these dilutions was added to 198 µl assay buffer and mixed well using a multichannel pipette. […] Concentration ranges of inhibitor compounds were 40 - 0.006 µM (final concentration, 1% DMSO). The PFK reaction in the presence of inhibitor was carried out using 10 µl of 1 µg/ml PFK (final concentration 0.4 µg/ml) which was added to 10 µl of the 1% DMSO inhibitor compound serial dilutions in a white, non-binding 96-well plate (Greiner BioOne 655904). CTCB-001 was used as a positive control at a final concentration of 5 µM. Assay buffer containing 1% DMSO was added instead of inhibitor compound for the negative control. The protein/inhibitor mixture was incubated for 10 minutes at room temperature (RT). The kinase reaction was started by adding a 5x ATP/F6P stock in assay buffer (final concentrations 0.5 mM F6P and 0.1 mM ATP). Plates were then sealed, centrifuged at 560 x g for 30 seconds and incubated at RT for 30 minutes. 25 µl of ‘ADP-Glo™ Reagent’ was then added to each well, mixed using a multichannel pipette and incubated at room temperature for 40 minutes. 50 µl of ‘Kinase Detection Reagent’ was added and incubated for 50 minutes at RT. The luminescence was recorded using a Spectramax© M5 Multi-mode Plate Reader (Molecular Devices) in single-point mode, with an integration time of 750 milliseconds. The luminescence values were converted to ADP concentration using a standard calibration curve for ADP. The resulting ADP concentrations were plotted as a function of inhibitor compound concentration using Kaleidagraph 4.0 software. The data were analysed using non-linear regression and a sigmoidal curve was fitted (Supplementary Figure 1) to determine the IC50. Kaleidagraph 4.0 uses the Levenberg-Marquardt algorithm in an iterative procedure to fit non-linear curves. […] The slope of the curve at the midpoint (m4) was set to 1.
# [1] = ADP-Glo, mean ± SD, read-out: IC50 (µM) for inhibition of T. brucei phosphofructokinase (PFK IC50)
# [2] = source data, read-out: IC50 (µM), single dated measurement
# [3] = source data for Fig. 2 and Table 1, read-out: Average IC50
compound,measurement,setting,value
CN(C)CCn1ccc2c(ccn2Cc2ccc(Cl)c(Cl)c2)c1=O [CTCB 405],"RLU, avg",Conc 0.00640146 uM,39926.3 RLU
same,"RLU, individual replicates",Conc 0.00640146 uM,40029.2 RLU and 39823.3 RLU
same,"RLU, avg",Conc 0.0192044 uM,39977.3 RLU
same,"RLU, individual replicates",Conc 0.0192044 uM,42153.7 RLU and 37800.9 RLU
same,"RLU, avg",Conc 0.0576132 uM,34288.1 RLU
same,"RLU, individual replicates",Conc 0.0576132 uM,36858 RLU and 31718.2 RLU
same,"RLU, avg",Conc 0.17284 uM,23285 RLU
same,"RLU, individual replicates",Conc 0.17284 uM,25069.7 RLU and 21500.2 RLU
same,"RLU, avg",Conc 0.518519 uM,10488.4 RLU
same,"RLU, individual replicates",Conc 0.518519 uM,11745.9 RLU and 9230.85 RLU
same,"RLU, avg",Conc 1.55556 uM,4498.05 RLU
same,"RLU, individual replicates",Conc 1.55556 uM,4537.49 RLU and 4458.6 RLU
same,"RLU, avg",Conc 4.66667 uM,2709.41 RLU
same,"RLU, individual replicates",Conc 4.66667 uM,2899.92 RLU and 2518.91 RLU
same,"RLU, avg",Conc 14 uM,1717.44 RLU
same,"RLU, individual replicates",Conc 14 uM,1947.39 RLU and 1487.48 RLU
"CN(C)CCn1ccc2c(ccn2Cc2ccc(Cl)c(Cl)c2)c1=O [CTCB-405, 1-[(3,4-Dichlorophenyl)methyl]-5-[2-(dimethylamino)ethyl] pyrrolo[3,2-c]pyridin-4-one]",IC50,[1],0.18 ± 0.03 µM
same,IC50,[2],0.209 µM and 0.202 µM and 0.134 µM and 0.19 µM
CNCCn1ccc2c(ccn2Cc2ccc(Cl)c(Cl)c2)c1=O [CTCB-435],IC50,[3],0.12 µM
same,IC50,[2],0.111 µM and 0.127 µM
"CN(C)CCn1ccc2c(ccn2Cc2ccc(Cl)c(Br)c2)c1=O [CTCB-470, 1-[(3-Bromo-4-chlorophenyl)methyl]-5-[2-(dimethylamino)ethyl] pyrrolo[3,2-c]pyridin-4-one]",IC50,[3],0.21 µM
same,IC50,[2],0.137 µM and 0.154 µM and 0.209 µM and 0.359 µM
"CN(C)CCn1ccc2c(ccn2Cc2ccc(F)c(Br)c2)c1=O [CTCB-508, 1-[(3-Bromo-4-fluorophenyl)methyl]-5-[2-(dimethylamino)ethyl] pyrrolo[3,2-c]pyridin-4-one]",IC50,[1],0.2 ± 0.05 µM
same,IC50,[2],0.13 µM and 0.229 µM and 0.25 µM
